The melting point is the temperature of the solid-liquid transition. By pIC50 is commonly meant the negative decadic logarithm of the IC50, by convention in mol/L.

The results in this text go back to patent US6518303B2, “2-phenylpyran-4-one derivatives” (Almirall Prodesfarma S.A., priority 1999, dated 2003).

Each structure is given as a SMILES string. pIC50: −log10 of the molar value.

Series [1] has as its target T1, COX-1 (Homo sapiens, UniProt P23219).
T1 construct: Fresh blood from healthy volunteers; endogenous in cells; host or cells: fresh heparinized human whole blood stimulated with calcium ionophore A23187
The series can be described thus: COX-1 activity in human whole blood (TXB2, calcium ionophore A23187). To be noted: 1 h at 37° C., TXB2 ELISA. It counts as cell-based. The procedure: For the COX-1 activity determination, 500 μl aliquots of blood were incubated with either 5 μl vehicle (dimethylsulphoxide) or 5 μl of a test compound for 1 h at 37° C. […] Plasma was separated by centrifugation (10 min at 13000 rpm) and kept at −30° C. until TXB2 levels were measured using an enzyme immunoassay kit (ELISA). The effect of the compounds were evaluated by incubating each compound at five to six different concentrations with triplicate determinations. IC50 values were obtained by non-linear regression using InPlot, GraphPad software on an IBM computer.
(ELISA stands for enzyme-linked immunosorbent assay.)

For series [2], the target named is T2, COX-2 (Homo sapiens, UniProt P35354).
T2 construct: incubated in the presence of LPS (10 μg/ml) for 24 h at 37° C. in order to induce The COX-2 expression; endogenous in cells; host or cells: fresh heparinized human whole blood, COX-2 induced with LPS for 24 h
T2 sequence (P35354 18-604): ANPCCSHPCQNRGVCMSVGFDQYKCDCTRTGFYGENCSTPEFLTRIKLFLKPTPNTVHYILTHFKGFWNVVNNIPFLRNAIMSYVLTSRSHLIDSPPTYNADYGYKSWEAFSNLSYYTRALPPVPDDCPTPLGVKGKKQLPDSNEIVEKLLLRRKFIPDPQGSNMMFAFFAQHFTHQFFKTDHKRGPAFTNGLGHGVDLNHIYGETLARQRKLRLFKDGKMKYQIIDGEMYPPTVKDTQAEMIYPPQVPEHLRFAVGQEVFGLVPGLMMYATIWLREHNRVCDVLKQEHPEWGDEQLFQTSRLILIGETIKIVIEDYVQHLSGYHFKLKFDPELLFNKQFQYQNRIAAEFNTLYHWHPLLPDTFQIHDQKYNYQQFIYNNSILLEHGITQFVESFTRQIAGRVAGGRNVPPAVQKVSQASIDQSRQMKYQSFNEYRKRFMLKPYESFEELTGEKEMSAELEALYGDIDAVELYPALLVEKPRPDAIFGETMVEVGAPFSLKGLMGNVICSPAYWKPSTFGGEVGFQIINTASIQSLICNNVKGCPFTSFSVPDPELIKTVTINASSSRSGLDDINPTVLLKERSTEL
The series can be described thus: COX-2 activity in human whole blood (PGE2, LPS-induced). It counts as cell-based. Particulars: for pIC50: human whole blood, LPS 10 μg/ml 24 h at 37° C., PGE2 ELISA; for Ratio COX-1/COX-2: ratio of whole blood IC50 values. The procedure:
Plasma was separated by centrifugation (10 min at 13000 rpm.) and kept at −30° C. until PGE2 levels were measured using an enzyme immunoassay kit (ELISA). The effects of inhibitors were studied by incubating each compound (5 μl aliquots) at five to six different concentrations with triplicate determinations in the presence of LPS for 24 hours. IC50 values were obtained by non-linear regression using InPlot, GraphPad software on an IBM computer.

T1 sequence (P23219 24-599): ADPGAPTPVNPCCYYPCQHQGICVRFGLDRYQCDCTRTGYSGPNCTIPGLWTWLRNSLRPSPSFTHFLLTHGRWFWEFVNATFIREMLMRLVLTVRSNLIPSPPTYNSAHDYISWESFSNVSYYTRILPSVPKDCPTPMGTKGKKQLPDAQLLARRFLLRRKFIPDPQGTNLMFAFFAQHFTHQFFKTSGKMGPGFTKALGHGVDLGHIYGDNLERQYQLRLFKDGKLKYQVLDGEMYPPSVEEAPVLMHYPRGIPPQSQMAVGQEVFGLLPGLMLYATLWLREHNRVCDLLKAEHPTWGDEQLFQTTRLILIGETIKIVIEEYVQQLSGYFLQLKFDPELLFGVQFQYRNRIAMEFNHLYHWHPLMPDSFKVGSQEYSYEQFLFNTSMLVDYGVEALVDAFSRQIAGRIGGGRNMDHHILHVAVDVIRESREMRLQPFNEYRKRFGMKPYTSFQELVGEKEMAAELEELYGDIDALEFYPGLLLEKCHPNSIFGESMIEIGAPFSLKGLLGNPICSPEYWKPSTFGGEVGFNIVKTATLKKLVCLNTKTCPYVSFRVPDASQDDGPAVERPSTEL

Consider `COCc1cc(=O)c(-c2ccc(Cl)cc2)c(-c2ccc(S(C)(=O)=O)cc2)o1` (hydrate or solvate) [Compound 63, 3-(4-chlorophenyl)-2-(4-methanesulfonylphenyl)-6-methoxymethylpyran-4-one], for which the melting point worked out at 162 °C.

`Cc1cc(=O)c(-c2ccccc2)c(-c2ccc(S(C)(=O)=O)cc2)o1` [Compound 1, 2-(4-methanesulfonylphenyl) -6-methyl-3-phenylpyran-4-one] came in with a melting point of 185 °C.

`Cc1cc(=O)c(-c2ccc(F)cc2)c(-c2ccc(S(C)(=O)=O)cc2)o1` [Compound 2, 3-(4-fluorophenyl)-2-(4-methanesulfonylphenyl)-6-methylpyran-4-one] returned a melting point of 237 °C. Also, the pIC50 in series [1] was below 4.00. Besides, in series [2], the pIC50 was 5.97 and the “Ratio COX-1/COX-2” value is above 94.

`Cc1cc(=O)c(-c2cccc(F)c2)c(-c2ccc(S(C)(=O)=O)cc2)o1` [Compound 3, 3-(3-fluorophenyl)-2-(4-methanesulfonylphenyl)-6-methylpyran-4-one] displayed a melting point of 182 °C.

The molecule `Cc1cc(=O)c(-c2cccc(Cl)c2)c(-c2ccc(S(C)(=O)=O)cc2)o1` [Compound 6, 3-(3-chlorophenyl)-2-(4-methanesulfonylphenyl)-6-methylpyran-4-one] showed a melting point of 131 °C.

For `Cc1cc(=O)c(-c2ccccc2Cl)c(-c2ccc(S(C)(=O)=O)cc2)o1` [Compound 7, 3-(2-chlorophenyl)-2-(4-methanesulfonylphenyl)-6-methylpyran-4-one], the melting point worked out at 148 °C.

`Cc1ccc(-c2c(-c3ccc(S(C)(=O)=O)cc3)oc(C)cc2=O)cc1` [Compound 10, 2-(4-methanesulfonylphenyl)-6-methyl-3-p-tolylpyran-4-one] gave a melting point of 205 °C.

In turn, `Cc1cccc(-c2c(-c3ccc(S(C)(=O)=O)cc3)oc(C)cc2=O)c1` [Compound 11, 2-(4-methanesulfonylphenyl)-6-methyl-3-m-tolylpyran-4-one] returned a melting point of 126 °C.

`Cc1cc(=O)c(-c2ccccc2C)c(-c2ccc(S(C)(=O)=O)cc2)o1` [Compound 12, 2-(4-methanesulfonylphenyl)-6-methyl-3-o-tolylpyran-4-one] had a melting point of 91 to 93 °C.

As for `Cc1cc(=O)c(-c2ccc(C(F)(F)F)cc2)c(-c2ccc(S(C)(=O)=O)cc2)o1` [Compound 13, 2-(4-methanesulfonylphenyl)-6-methyl-3-(4-trifluoromethylphenyl)pyran-4-one], the melting point was determined as 172 °C.

Molecule `Cc1cc(=O)c(-c2ccc(F)cc2F)c(-c2ccc(S(C)(=O)=O)cc2)o1` [Compound 15, 3-(2,4-difluorophenyl)-2-(4-methanesulfonylphenyl)-6-methylpyran-4-one] showed a melting point of 208 °C. Besides, in series [2], the pIC50 was 5.96 and the “Ratio COX-1/COX-2” value is listed as 90.

`Cc1cc(=O)c(-c2ccc(F)c(F)c2)c(-c2ccc(S(C)(=O)=O)cc2)o1` [Compound 16, 3-(3,4-difluorophenyl)-2-(4-methanesulfonylphenyl)-6-methylpyran-4-one] returned a melting point of 207 °C.

`Cc1cc(=O)c(-c2cc(F)cc(F)c2)c(-c2ccc(S(C)(=O)=O)cc2)o1` [Compound 17, 3-(3,5-difluorophenyl)-2-(4-methanesulfonylphenyl)-6-methylpyran-4-one] showed a melting point of 210 °C.

As to `Cc1cc(=O)c(-c2cc(F)ccc2F)c(-c2ccc(S(C)(=O)=O)cc2)o1` [Compound 18, 3-(2,5-difluorophenyl)-2-(4-methanesulfonylphenyl)-6-methylpyran-4-one], the melting point stood at 183 °C.

Turning to `Cc1cc(=O)c(-c2c(F)cccc2F)c(-c2ccc(S(C)(=O)=O)cc2)o1` [Compound 19, 3-(2,6-difluorophenyl)-2-(4-methanesulfonylphenyl)-6-methylpyran-4-one], the melting point was 206 °C.

For the molecule `Cc1cc(=O)c(-c2ccc(Cl)cc2Cl)c(-c2ccc(S(C)(=O)=O)cc2)o1` [Compound 21, 3-(2,4-dichlorophenyl)-2-(4-methanesulfonylphenyl)-6-methylpyran-4-one], the melting point was 203 °C.

In the case of `Cc1cc(=O)c(-c2ccc(F)cc2Cl)c(-c2ccc(S(C)(=O)=O)cc2)o1` [Compound 27, 3-(2-chloro-4-fluorophenyl)-2-(4-methanesulfonylphenyl)-6-methylpyran-4-one], the melting point came to 113 °C.

Consider `Cc1cc(=O)c(-c2ccc(C)c(Cl)c2)c(-c2ccc(S(C)(=O)=O)cc2)o1` [Compound 29, 3-(3-chloro-4-methylphenyl)-2-(4-methanesulfonylphenyl)-6-methylpyran-4-one], for which the melting point stood at 176 °C.

Consider `Cc1cc(=O)c(C2CCCCC2)c(-c2ccc(S(C)(=O)=O)cc2)o1` [Compound 33, 3-cyclohexyl-2-(4-methanesulfonylphenyl)-6-methylpyran-4-one], for which the melting point was 98 to 99 °C.

`Cc1cc(=O)c(Oc2ccccc2)c(-c2ccc(S(C)(=O)=O)cc2)o1` [Compound 38, 2-(4-methanesulfonylphenyl)-6-methyl-3-phenoxypyran-4-one] gave a melting point of 169 °C.

As for `Cc1cc(=O)c(Oc2ccccc2F)c(-c2ccc(S(C)(=O)=O)cc2)o1` [Compound 40, 3-(2-fluorophenoxy)-2-(methanesulfonylphenyl)-6-methylpyran-4-one], the negative logarithm of the IC50 (pIC50) in series [1] was 4.57. For the same molecule, in series [2], the pIC50 was 6.85 and the “Ratio COX-1/COX-2” value was found to be 193.

As for `Cc1cc(=O)c(Oc2ccccc2Cl)c(-c2ccc(S(C)(=O)=O)cc2)o1` [Compound 42, 3-(2-chlorophenoxy)-2-(methanesulfonylphenyl)-6-methylpyran-4-one], the pIC50 was 4.39 in series [1] and 6.70 in series [2]. Also, the “Ratio COX-1/COX-2” value in series [2] was 205.

`Cc1ccc(Oc2c(-c3ccc(S(C)(=O)=O)cc3)oc(C)cc2=O)cc1` [Compound 44, 2-(4-methanesulfonylphenyl)-6-methyl-3-(4-methylphenoxy) pyran-4-one] displayed a melting point of 183 °C. In addition, in series [1], the pIC50 was 4.41.

Regarding `Cc1cc(=O)c(-c2ccccc2)c(-c2ccc(S(N)(=O)=O)cc2)o1` [Compound 54, 4-(6-methyl-4-oxo-3-phenyl-4H-pyran-2-yl)benzenesulfonamide], the melting point is 218 °C.

In turn, `Cc1cc(=O)c(-c2ccc(F)cc2)c(-c2ccc(S(N)(=O)=O)cc2)o1` [Compound 55, 4-[3 (4-fluorophenyl)-6-methyl-4-oxo-4H-pyran-2-yl]benzenesulfonamide] displayed a melting point of 247 °C.

`Cc1cc(=O)c(-c2ccc(Cl)c(Cl)c2)c(-c2ccc(S(N)(=O)=O)cc2)o1` [Compound 56, 4-[3-(3,4-dichlorophenyl)-6-methyl-4-oxo-4H-pyran-2-yl]benzenesulfonamide]: the melting point is 128 °C.

In turn, `Cc1cc(=O)c(Oc2ccc(Cl)cc2)c(-c2ccc(S(N)(=O)=O)cc2)o1` [Compound 57, 4-[3-(4-chlorophenoxy)-6-methyl-4-oxo-4H-pyran-2-yl]benzenesulfonamide] showed a melting point of 221 °C.

With `CS(=O)(=O)c1ccc(-c2oc(C#N)cc(=O)c2-c2ccc(F)cc2F)cc1` [Compound 59, 5-(2,4-difluorophenyl)-6-(4-methanesulfonylphenyl)-4-oxo-4H-pyran-2-carbonitrile], the melting point stood at 113 °C.

As to `CS(=O)(=O)c1ccc(-c2oc(CO)cc(=O)c2-c2ccc(Cl)cc2)cc1` [Compound 60, 3-(4-chlorophenyl)-6-hydroxymethyl-2-(4-methanesulfonylphenyl)pyran-4-one], the melting point stood at 120 °C.

With `COCc1cc(=O)c(-c2ccc(Cl)cc2)c(-c2ccc(S(C)(=O)=O)cc2)o1` [Compound 63, 3-(4-chlorophenyl)-2-(4-methanesulfonylphenyl)-6-methoxymethylpyran-4-one], the pIC50 in series [1] is 4.36; in series [2] it was 5.76. In series [2], the “Ratio COX-1/COX-2” value was found to be 25.

Molecule `CS(=O)(=O)c1ccc(-c2oc(C(=O)O)cc(=O)c2-c2ccc(Cl)cc2)cc1` [Compound 65, 5-(4-chlorophenyl)-6-(4-methanesulfonylphenyl)-4-oxo-4H-pyran-2-carboxylic acid] yielded a melting point of 236 °C.
